Molecules are shown by their SMILES.

Data set [1] has as its system tactile sexual function (TSF). The data set can be described thus: Self-measured tactile sexual function (TSF) scores C, CT, A, B, BM, BS after ingesting treatment substance(s).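 Also: Self-rated by the single male inventor (about 65 kg) after oral intake, capsules unless noted, on the TSF scale, each one-unit score rise means roughly double the sensation intensity.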 Particulars: prolonged daily ingestion (D-Asp 3000 mg/day about a week; bupropion per prescription, following months).
From the text: Some treatment substances were in liquid form when orally ingested. For the Working Examples herein all treatment substances were in capsule form unless otherwise noted in the Tables herein. […] It is contemplated that the mg per kilogram dose of treatment substances and/or the time from ingesting one or more treatment substances may vary from person to person for optimum improvement in treating a sexual dysfunction (e.g., an SRSS including reduced TSF or absent TSF). In some instances, it is contemplated that ingesting one treatment substance may be done at a different time than ingesting another treatment substance to optimize the effect in treating a sexual dysfunction.
For a male, the A score is the highest intensity of TSF just before the first muscle contraction of ejaculation, and the B score is the highest intensity of TSF just after the first muscle contraction of ejaculation.
Data set [2] can be described thus: Non-sexual side effects associated with ingesting treatment substances. Particulars: after ingesting the treatment substance.
For the next data set, the system named is sexual function. Description: Additional sexual effects after ingesting treatment substances (C score different, urination sensitivity, ease to ejaculate). In kind it is in vivo, human. Particulars: 3000 mg/day, after about a week.
In a further data set the test system is ejaculation/orgasm. The data set can be described thus: Ejaculation scores D (strength of the muscle contractions during ejaculation) and DE (ease to achieve ejaculation), incl. FE/FO. In kind it is in vivo, human. To be noted: prolonged daily ingestion (D-Asp 3000 mg/day about a week; bupropion per prescription, following months).

Method for ejaculation/orgasm: Variations in TSF and other sexual responses were noticed after ingesting a treatment substance, and additional scores to describe these responses were recorded in some examples. In some examples the C score for TSF was localized only to the head (“glands”) of the penis when one or more C score measurements were taken prior to attempted or achieved ejaculation/orgasm. […] In some examples after ingesting a treatment substance, the speed of B score decrease from the first muscle contraction to the last muscle contraction of ejaculation was recorded as the “BS” score using terms such as “IS” for instantaneous loss of TSF where a B score of 0.0 occurred at or immediately after the first muscle contraction, “FT” for a fast loss of TSF, and “SL” for a slow loss of TSF. In some examples the minimum B score measured at or near the last muscle contraction was recorded as the “BM” score using the same scoring parameters as for the B score. […] In some examples the ease to achieve ejaculation was recorded as the “DE” score, with a score of 1.0 being ejaculation achieved with some difficulty, 2.0 being a typical/normal ease of ejaculation, and a 3.0 being of the ease of ejaculation was promoted. […] When a score (e.g., C, CT, A, B, BM, BS, D, DE) was not recorded or not applicable then “N/A” is listed for that score and that score was not used (no numeric score) for mathematical evaluations in such an occurrence.
Dietary vitamins and nutritional supplements were ingested about 7:00 AM to about 10:30 AM with coffee, and coffee consumption ended by about 12:00 PM or earlier. No food was ingested during the day before measurements as only one meal a day is typically eaten in the evening.
Measurements were made in the morning from about 7:30 AM until about 11:30 AM.
Dietary vitamins and nutritional supplements were ingested about 7:00 AM to about 10:30 AM with coffee, and coffee consumption ended by about 12:00 PM or earlier.
No food, dietary vitamins or nutritional supplements were ingested the day of the measurements until after the measurements were taken.

In data set [1], `N[C@H](CC(=O)O)C(=O)O` [D-Asp, D-Aspartic Acid] came in with an A score of 0, a B score of 0, a BM score of 0 and a C score of 0. In data set [2], the “non-sexual side effect / adverse event” value is listed as “a small bump from a varicose vein developed on the penis”. Moreover, the “physical arousal (erections)” value with sexual function is reported as “extremely promoted”. In the data set with ejaculation/orgasm, this molecule returned a D score of 3.0 and a DE score of 2.0.

Values taken from patent US20250152601A1, “Compositions and Methods for the Treatment of Sexual Dysfunctions” (The Jonathan Hurt Living Trust, priority 2022, published 2025).
